Data: patent US8846697B2, “Purine analogs” (The Regents of the University of California, priority 2006, dated 2014)
Entries after “also recorded” stand apart in the source; their conditions may differ.

System: human PBMC
Assay: Interferon α induction in human PBMC (Luminex, Beadlyte Human MultiCytokine kit)
Assay type: cell-based
Design: key to IFN-α (Interferon concentration): b: Below lower limit of detection
Conditions: for interferon inducing activity (in words) / EC50 / IFN-α (Interferon concentration): human PBMC; for interferon inducing activity (in words): 1 μM; for EC50: 10 μM to 10 nM, composited from three donors, read-out: EC50 (concentration at which 50% of the maximal IFN concentration was achieved); for EC50 / IFN-α (Interferon concentration): 24 hr; for IFN-α (Interferon concentration): all compounds tested at 1 μM, averages from four donors
Description: Reaction of 8-bromo compound 5 with NaN3 followed by Raney-Ni catalyzed hydrogenation furnished compound 6 in good yield. Acylation of compound 6 with ethylchloroformate led to the ethylcarbamate, compound 27, which was converted to the ureido compound 28 by reaction with methanolic ammonia. All compounds were tested for their ability to induce the production of interferon α in human PBMC compared to compound 4 as a positive control. Human blood samples were obtained from the San Diego Blood Bank. Peripheral blood mononuclear cells (PBMC) were isolated by density-gradient centrifugation over Ficoll-Hypaque (Amersham Pharmacia). Cells were resuspended in RPMI 1640 medium, supplemented with 10% fetal bovine serum (FBS), L-glutamine, and penicillin/streptomycin (RP10; Invitrogen, Carlsbad, Calif.), plated at 10^6 cells/well in 96-well plates, and stimulated with compounds at 1 μM final concentration for 24 hr. at 37° C., 5% CO2. The IFN-α level in the supernatants was measured by Luminex (Austin, Tex.) using the Beadlyte Human MultiCytokine kit (Upstate, Charlottesville, Va.), according to the manufacturer's instructions. Results presented in Table 2 are averages of data composited from four different donors. […] Detailed analytical data for these compounds is as follows:
For this dose response study, cells were treated with the listed compounds at concentrations ranging from 10 μM to 10 nM for 24 hr. The data shown in Table 3 are composited from three different donors, and a non-linear regression curve fit analysis was performed using GraphPad Prism software version 4.0b (San Diego, Calif.) to determine the EC50.

Row | Structure (SMILES) | interferon inducing activity (in words) | interferon inducing activity (in words) (listed as hydroxypropyl) | EC50 [µM] | IFN-α (Interferon concentration) | EC50 (in words) (interferon induction in human PBMC)
1 | COCCOc1nc(N)c2nc(NCCCO)n(Cc3ccccc3)c2n1 [Compound 14] | most active | about equally active | 3.2 | 113.18 pg/mL | 
2 | COCCOc1nc(N)c2nc(NCCc3ccccc3)n(Cc3ccccc3)c2n1 [Compound 18] | not active |  |  | 1.33 pg/mL | 
3 | COCCOc1nc(N)c2nc(N(CCO)CCO)n(Cc3ccccc3)c2n1 [Compound 13] | abrogated activity |  |  | 0.82 pg/mL | 
4 | CCCCNc1nc2c(N)nc(OCCOC)nc2n1Cc1ccccc1 [Compound 10] |  |  |  | 0.73 pg/mL | 
5 | COCCNc1nc2c(N)nc(OCCOC)nc2n1Cc1ccccc1 [Compound 21] |  |  |  | b | 
6 | CCNc1nc2c(N)nc(OCCOC)nc2n1Cc1ccccc1 [Compound 8] | most active; also recorded: superior to the others |  | 4.42 | 80.30 pg/mL | 
7 | COCCOc1nc(N)c2nc(N)n(Cc3ccccc3)c2n1 [Compound 6] | completely removed all interferon inducing activity |  | > 10 | 35.25 pg/mL | 
8 | COCCOc1nc(N)c2nc(NCC3CCCO3)n(Cc3ccccc3)c2n1 (stereo not drawn) [Compound 16] |  |  |  | b | 
9 | COCCOc1nc(N)c2nc(NCCO)n(Cc3ccccc3)c2n1 [Compound 12] | most active; also recorded: activity was enhanced somewhat |  | 5.33 | 99.21 pg/mL | 
10 | COCCOc1nc(N)c2nc(NCCN(CCO)CCO)n(Cc3ccccc3)c2n1 [Compound 22] |  |  |  | b | 
11 | CNc1nc2c(N)nc(OCCOC)nc2n1Cc1ccccc1 [Compound 7] |  |  |  | b | 
12 | CCCNc1nc2c(N)nc(OCCOC)nc2n1Cc1ccccc1 [Compound 9] |  |  |  | 8.80 pg/mL | 
13 | COCCOc1nc(N)c2[nH]c(=O)n(Cc3ccccc3)c2n1 [Compound 4, 9-benzyl-2-methoxyethoxy-8-oxoadenine, reference compound] |  |  | 0.14 | 418.00 pg/mL | 
14 | COCCOc1nc(N)c2nc(NCCc3c[nH]c4ccccc34)n(Cc3ccccc3)c2n1 [Compound 26] | not active |  |  | b | 
15 | COCCOc1nc(N)c2nc(N3CCOCC3)n(Cc3ccccc3)c2n1 [Compound 25] | not active |  |  | 0.41 pg/mL | 
16 | COCCOc1nc(N)c2nc(NCCN3CCCCC3)n(Cc3ccccc3)c2n1 [Compound 20] | not active |  |  | b | 
17 | COCCOc1nc(N)c2nc(NCc3ccccc3)n(Cc3ccccc3)c2n1 [Compound 17] |  |  |  | b | 
18 | CCOC(=O)Nc1nc2c(N)nc(OCCOC)nc2n1Cc1ccccc1 [Compound 27] |  |  |  | 1.03 pg/mL | 
19 | COCCOc1nc(N)c2nc(NCCCN(CCO)CCO)n(Cc3ccccc3)c2n1 [Compound 23] |  |  |  | b | 
20 | COCCOc1nc(N)c2nc(NCCCCO)n(Cc3ccccc3)c2n1 [Compound 15] | devoid of activity |  |  | b | 
21 | COCCOc1nc(N)c2nc(NC(N)=O)n(Cc3ccccc3)c2n1 [Compound 28] |  |  |  | b | 
22 | COCCOc1nc(N)c2nc(NN)n(Cc3ccccc3)c2n1 [Compound 29] |  |  |  | 0.21 pg/mL | 
23 | COCCOc1nc(N)c2nc(NCC3CCCCC3)n(Cc3ccccc3)c2n1 [Compound 24] |  |  |  | b | 
24 | COCCOc1nc(N)c2nc(NCCN3CCOCC3)n(Cc3ccccc3)c2n1 [Compound 19] | most active; also recorded: highest activity |  | 0.79 | 110.48 pg/mL | submicromolar range
25 | CCN(CC)c1nc2c(N)nc(OCCOC)nc2n1Cc1ccccc1 [Compound 11] | activity is lost |  |  | b | 
